Data set [1] concerns S. aureus ATCC 29213 biofilm. Kind of data set: biofilm susceptibility / eradication of preformed biofilm (MTT). The following applies: for MBEC80 (minimum biofilm eradication concentration): 80% reduction of metabolic activity of preformed biofilm, 24 h. In kind it is cell-based, Staphylococcus aureus. How it is done: (§1) The ability of compounds 1f, 1g, and 1h to inhibit biofilm growth and destroy the matured biofilm of S. aureus ATCC 29213 was investigated. The inhibitory activity was studied by the method with crystal violet. The activity to disrupt matured biofilm was evaluated as a decrease of metabolic activity using the MTT assay.
Biofilms were grown as described above but without the presence of the compounds. After 48 h of incubation at 37 °C, the contents of the wells were removed, and the plates were washed three times by sterile PBS. After washing, 100 µL of tested compounds in CaMH were added to the wells. […] A growth control containing 2.5% of DMSO in CaMH was included. The plates were incubated at 37 °C for 24 h, then the solutions of compounds were removed, and the plates were gently washed three times by sterile PBS. Bacterial viability was analyzed using 100 µL of 0.05 mg/mL MTT (3-(4,5-dimethylthiazol-2-yl)- 2,5-diphenyltetrazolium bromide) in PBS in each well. The plates with MTT were incubated at 37 °C for 1–2 h in darkness, until the blue formazan crystals appeared. MTT solution was removed and the plates were washed once by PBS. Crystals of formazan were dissolved using 17% sodium dodecysulphate in 40% dimethylformamid. The absorbance at 570 nm was measured and the percentage of eradication was counted according to the equation (3) % of eradication = 100 − OD570S/OD570C × 100 where OD570S is the absorbance of the sample at 570 nm and OD570C is the absorbance of the growth control at 570 nm. The minimum biofilm eradication concentration was the lowest concentration of the compound, which reduced the metabolic activity of the biofilm by 80% compared to the growth control. The experiment was made in duplicate and repeated at least three times.

Details of data set [2]: method as in PMID 30274224. The following applies: isocratic RP-HPLC, extrapolated lipophilicity index; cited from earlier work.
Data set [3] concerns human monocytic leukemia THP-1 cells. Kind of data set: in vitro antiproliferative assay (WST-1). It counts as cell-based. The following applies: Homo sapiens, THP-1, 24 h, read-out: Tox IC50. The method in brief: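 THP-1 cells in serum-free RPMI 1640 treated with compounds (DMSO ≤0.1%) for 24 h at 37 °C, 5% CO2, triplicate; viability by WST-1 tetrazolium read-out. IC50 from dose-response curve.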

Data set [4] has as its system methicillin-resistant S. aureus SA 3202. Kind of data set: MIC, broth microdilution. It counts as cell-based, Staphylococcus aureus. The following applies: Staphylococcus aureus, read-out: MICs. The method in brief:
(§2)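 Overnight colonies from blood agar were suspended in PBS to 0.5 McFarland and diluted to 5 × 10^5 CFU/mL final in wells. Staphylococci were tested in cation-adjusted Mueller–Hinton broth and enterococci in brain heart infusion.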
In general terms: In broth dilution the organism is exposed to a series of concentrations in liquid medium.

Data set [5] concerns methicillin-resistant S. aureus 63718. Description: MIC, broth microdilution. It counts as cell-based, Staphylococcus aureus. The following applies: Staphylococcus aureus, read-out: MICs. Summed up:
as §2

The test system of data set [6] is methicillin-resistant S. aureus SA 630. Description: MIC, broth microdilution. It counts as cell-based, Staphylococcus aureus. The following applies: Staphylococcus aureus, read-out: MICs. Summed up: as §2
A further data set deals with S. aureus ATCC 29213. Kind of data set: MIC, broth microdilution. It counts as cell-based, Staphylococcus aureus. The following applies: Staphylococcus aureus. The method in brief:
as §2

On the set-up of data set [7]: method as in PMID 30274224. The following applies: cited from earlier work.
In data set [8] the test system is S. aureus ATCC 29213 biofilm. Description: biofilm inhibition assay (crystal violet). It counts as cell-based, Staphylococcus aureus. The following applies: ≥80% inhibition of biofilm formation; for MBIC80 (minimum biofilm inhibitory concentration): 48 h. How it is done: as §1
The plates were inoculated by inoculum of S. aureus ATCC 29213 grown in TSB + 2% glucose to exponential phase. Before the inoculation of the plate, the original inoculum was diluted to 1 McFarland and then 1:100 in fresh TSB + 2% glucose, to reach the final concentrations in the wells of […]. […] The plates were incubated at 37 °C for 48 h. After incubation, the contents of the wells were removed, and the plates were washed three times by sterile PBS. After drying, 125 μL of 0.5% crystal violet was added to each well and the plates were stained at room temperature for 20 min. Then the dye was removed, and the plates were washed three times by sterile PBS. The colored biofilm was detached from the wells using 33% solution of acetic acid. The absorbance at 595 nm was measured. As a blank, a non-inoculated plate treated in the same way was used. […] The minimum biofilm inhibitory concentration was the lowest concentration of the compounds, which inhibited the growth of 80% bacteria compared to the growth control. The experiment was made in duplicate and repeated at least three times.

[9] abbreviates: ATCC29213, SA = S. aureus ATCC 29213, read-out: MICs.
The mark [10] stands for this setting: ATCC29213, Table 7, planktonic cells of S. aureus ATCC 29213, read-out: MIC.

Values joined by “and” are separate entries in the source; they are usually repeats but may differ in a detail not shown here. Equal entries are not always repeated. Where two headings read alike, the source gives them in different places.

The term IC50 denotes the point on the concentration scale where inhibition reaches its midpoint. `CCCCCOc1cccc(NC(=O)OC(CN(CCC)CCC)CN2CCCC2)c1.Cl.Cl` (stereo not drawn) [1f, 1-[3-(dipropylammonio)-2-({[3-(pentyloxy)phenyl]carbamoyl}-oxy)propyl]pyrrolidinium dichloride]: the “MBEC80 (minimum biofilm eradication concentration)” value (shortened to “MBEC80”) in [1] was found to be 64 µg/mL. The log kw in [2] is given as 4.6722. Further, the IC50 in [3] (THP-1 cells, WST-1, 24 h) stood at 4.19 ± 0.54 µM. Moreover, the MIC is 16 µg/mL and 31.6 µM in data set [4] (MRSA3 = SA 3202); 16 µg/mL and 31.6 µM in data set [5] (MRSA1 = S. aureus 63718); 32 µg/mL and 63.2 µM in data set [6] (MRSA2 = SA 630); 16 µg/mL and 31.6 µM with S. aureus ATCC 29213 (setting [9]); 16 µg/mL in the data set with S. aureus ATCC 29213 (setting [10]). In data set [7], the “γ (surface tension, relative surface activity)” value is given as 0.06285 N/m. For the same molecule, the “minimum biofilm inhibitory concentration relative to MIC against planktonic cells” value in [8] is on record as “two-fold higher”. Moreover, the “MBIC80 (minimum biofilm inhibitory concentration)” value in [8] is listed as 32 µg/mL.

For the molecule `CCCCCCOc1cccc(NC(=O)OC(CN(CCC)CCC)CN2CCCC2)c1.Cl.Cl` (stereo not drawn) [1g, 1-[3-(dipropylammonio)-2-({[3-(hexyloxy)phenyl]carbamoyl}oxy)propyl]pyrrolidinium dichloride], the “MBEC80” value in data set [1] came to 16 µg/mL. The log kw in data set [2] is listed as 4.9446. The IC50 in data set [3] (THP-1 cells, WST-1, 24 h) worked out at 3.5 ± 0.31 µM. The MIC was 8 µg/mL and 15.4 µM in data set [4] (MRSA3 = SA 3202); 8 µg/mL and 15.4 µM in data set [5] (MRSA1 = S. aureus 63718); 16 µg/mL and 30.8 µM in data set [6] (MRSA2 = SA 630); 8 µg/mL and 15.4 µM in the data set on S. aureus ATCC 29213 (setting [9]); 8 µg/mL in the data set with S. aureus ATCC 29213 (setting [10]). Moreover, in data set [7], the “γ (surface tension, relative surface activity)” value was 0.06105 N/m. In addition, the “minimum biofilm inhibitory concentration relative to MIC against planktonic cells” value in data set [8] was “equal to minimum inhibitory concentration against planktonic cells”. In data set [8], the “MBIC80 (minimum biofilm inhibitory concentration)” value amounted to 8 µg/mL.

On to `CCCCCCCOc1cccc(NC(=O)OC(CN(CCC)CCC)CN2CCCC2)c1.Cl.Cl` (stereo not drawn) [1h, 1-[3-(Dipropylammonio)-2-({[3-(heptyloxy)phenyl]carbamoyl}oxy)propyl]pyrrolidinium dichloride], for which the “concentration giving 80% degradation of preformed biofilm relative to MIC” value in data set [1] is “two-fold”. Further, the “MBEC80” value in data set [1] was found to be 16 µg/mL. Also, the log kw in data set [2] was 5.5384. Also, the IC50 in data set [3] (THP-1 cells, WST-1, 24 h) turned out to be 3.67 ± 0.01 µM. For the same molecule, the MIC in data set [4] (MRSA3 = SA 3202) is 8 µg/mL and 15 µM; in data set [5] (MRSA1 = S. aureus 63718) it was 8 µg/mL and 15 µM; in data set [6] (MRSA2 = SA 630), 8 µg/mL and 15 µM; with S. aureus ATCC 29213 (setting [9]), 8 µg/mL and 15 µM; with S. aureus ATCC 29213 (setting [10]), 8 µg/mL. Moreover, in [7], the “γ (surface tension, relative surface activity)” value is on record as 0.05786 N/m. In addition, the “minimum biofilm inhibitory concentration relative to MIC against planktonic cells” value in data set [8] is on record as “equal to minimum inhibitory concentration against planktonic cells”. In [8], the “MBIC80 (minimum biofilm inhibitory concentration)” value was determined as 8 µg/mL.

`CN[C@H](CC(C)C)C(=O)N[C@H]1C(=O)N[C@@H](CC(N)=O)C(=O)N[C@H]2C(=O)N[C@H]3C(=O)N[C@H](C(=O)N[C@H](C(=O)O)c4cc(O)cc(O)c4-c4cc3ccc4O)[C@H](O)c3ccc(c(Cl)c3)Oc3cc2cc(c3O[C@@H]2O[C@H](CO)[C@@H](O)[C@H](O)[C@H]2O[C@H]2C[C@](C)(N)[C@H](O)[C@H](C)O2)Oc2ccc(cc2Cl)[C@H]1O` [VAN, vancomycin, reference compound]: the IC50 in data set [3] is above 30 µM. In addition, the MIC was 1 µg/mL and 0.69 µM in [4]; 2 µg/mL and 1.38 µM in data set [5]; 1 µg/mL and 0.69 µM in [6]; 1 µg/mL and 0.69 µM with S. aureus ATCC 29213 (ATCC29213, read-out: MICs).

These data come from paper PMC7168207, “Dibasic Derivatives of Phenylcarbamic Acid as Prospective Antibacterial Agents Interacting with Cytoplasmic Membrane” (Antibiotics, 2020).
